From patent US7723523B2, “Tetrahydropyridothiophenes” (4SC AG, priority 2004, dated 2010)

Experiments:
[1] = tested on: RKO colon adenocarcinoma cells (RKOp27) arrested by expression of ectopic p27Kip1; assay: Alamar Blue cell viability assay on RKOp27 cells arrested by Ponasterone A-induced p27Kip1 (cell cycle specific mode of action); format: cell-based; conditions: Homo sapiens, RKOp27, 72 h, cells arrested by p27Kip1 induced with 10 μM Ponasterone A, 72 hours incubation, read-out: IC50 RKO p27 arrested
Procedure: To determine the cell cycle specific mode of action, subclones of RKO colon adenocarcinoma cells (RKOp27 or RKOp21 as described by Schmidt et al. in Oncogene 19, 2423-2429; 2000) are seeded into 96 well flat bottom plates at a density of 16000 cells per well in a volume of 50 μl per well in DMEM growth medium with 10% FCS containing 10 μM Ponasterone A. 24 hours after seeding 50 μl each of the compound dilutions in DMEM are added into each well of the 96 well plate. Each compound dilution is tested as quadruplicates. Wells containing untreated control cells are filled with 50 μl DMEM containing 1% DMSO. The cells are then incubated with the substances for 72 hours at 37° C. in a humidified atmosphere containing 5% carbon dioxide. To determine the viability of the cells, 10 μl of an Alamar Blue solution (Biosource) are added and the fluorescence is measured at an extinction of 544 nm and an emission of 590 nm. For the calculation of the cell viability the emission value from untreated cells is set as 100% viability and the emission rates of treated cells are set in relation to the values of untreated cells. Viabilities are expressed as % values. Viability is compared of proliferating cells grown in the absence of the inducer Ponasterone A, versus viability of cells arrested by the expression of ectopic p27Kip1 induced by Ponasterone A. The data of this experimental setting are summarized in table A (2nd column).

[2] = tested on: RKO (RKOp27) human colon adenocarcinoma cells; assay: Alamar Blue cell viability assay, anti-proliferative/cytotoxic activity on proliferating RKOp27 cells; format: cell-based; conditions: absence of Ponasterone A, 72 hours incubation, read-out: IC50 RKO p27 proliferating
Procedure: The anti-proliferative/cytotoxic activity of the compounds described herein, can be tested on subclones of RKO (RKOp27) human colon adenocarcinoma cells (Schmidt et al., Oncogene 19, 2423-2429; 2000) using the Alamar Blue cell viability assay (described in O'Brien et al. Eur J Biochem 267, 5421-5426, 2000). The compounds are dissolved as 20 mM solutions in dimethylsulfoxide (DMSO) and subsequently diluted in semi-logarithmic steps. DMSO dilutions are further diluted 1:100 into Dulbecco's modified Eagle's medium (DMEM) containing 10% fetal calf serum to a final concentration twice as much as the final concentration in the test. RKO subclones are seeded into 96 well flat bottom plates at a density of 4000 cells per well in a volume of 50 μl per well. 24 hours after seeding 50 μl each of the compound dilutions in DMEM are added into each well of the 96 well plate. Each compound dilution is tested as quadruplicates. Wells containing untreated control cells are filled with 50 μl DMEM containing 1% DMSO. The cells are then incubated with the substances for 72 hours at 37° C. in a humidified atmosphere containing 5% carbon dioxide. To determine the viability of the cells, 10 μl of an Alamar Blue solution (Biosource) are added and the fluorescence is measured at an extinction of 544 nm and an emission of 590 nm. For the calculation of the cell viability the emission value from untreated cells is set as 100% viability and the emission rates of treated cells are set in relation to the values of untreated cells. Viabilities are expressed as % values.
The corresponding IC50 values of the compounds for anti-proliferative/cytotoxic activity are determined from the concentration-effect curves.
Representative IC50 values for anti-proliferation/cytotoxicity determined in the aforementioned assay are described in the table A (1st column), in which the numbers of the compound correspond to the numbers of the examples.

CCOC(=O)N1CCc2c(sc(NC(=O)/C=C/c3ccccc3)c2C#N)C1 [Example 1, N-(6-Ethoxycarbonyl-3-cyano-4,5,6,7-tetrahydro-thieno[2,3-c]pyridin-2-yl)-3-phenyl-acrylamide]
IC50 [1]: > 100 µM | IC50 [2]: < 1 µM

CC(C)(C)OC(=O)N1CCc2c(sc(NC(=O)/C=C/c3ccccc3)c2C#N)C1 [Example 2, N-(6-tert-Butoxycarbonyl-3-cyano-4,5,6,7-tetrahydro-thieno[2,3-c]pyridin-2-yl)-3-phenyl-acrylamide]
IC50 [1]: > 100 µM | IC50 [2]: ≤ 2 µM

CCOC(=O)N1CCc2c(sc(NC(=O)/C=C/c3ccccc3Cl)c2C#N)C1 [Example 4, N-(6-Ethoxycarbonyl-3-cyano-4,5,6,7-tetrahydro-thieno[2,3-c]pyridin-2-yl)-3-(2-chlorophenyl)-acrylamide]
IC50 [1]: > 100 µM | IC50 [2]: ≤ 2 µM

CCOC(=O)N1CCc2c(sc(NC(=O)/C=C/c3cccnc3)c2C#N)C1 [Example 7, N-(6-Ethoxycarbonyl-3-cyano-4,5,6,7-tetrahydro-thieno[2,3-c]pyridin-2-yl)-3-pyridyl-acrylamide]
IC50 [1]: > 100 µM | IC50 [2]: ≤ 2 µM

CCOC(=O)N1CCc2c(sc(NC(=O)/C=C/c3cccs3)c2C#N)C1 [Example 8, 3-Cyano-2-((E)-3-thiophen-2-yl-allanoylamino)-4,7-dihydro-5H-thieno[2,3-c]pyridine-6-carboxylic acid ethyl ester]
IC50 [1]: > 100 µM | IC50 [2]: ≤ 2 µM

CCOC(=O)N1CCc2c(sc(NC(=O)/C=C/c3ccsc3)c2C#N)C1 [Example 9, 3-Cyano-2-((E)-3-thiophen-3-yl-allanoylamino)-4,7-dihydro-5H-thieno[2,3-c]pyridine-6-carboxylic acid ethyl ester]
IC50 [1]: > 100 µM | IC50 [2]: ≤ 2 µM

CCOC(=O)N1CCc2c(sc(NC(=O)/C=C/c3ccco3)c2C#N)C1 [Example 10, 3-Cyano-2-((E)-3-furan-2-yl-allanoylamino)-4,7-dihydro-5H-thieno[2,3-c]pyridine-6-carboxylic acid ethyl ester]
IC50 [1]: > 100 µM | IC50 [2]: ≤ 2 µM

CCOC(=O)N1CCc2c(sc(NC(=O)/C=C/c3ccoc3)c2C#N)C1 [Example 11, 3-Cyano-2-((E)-3-furan-3-yl-allanoylamino)-4,7-dihydro-5H-thieno[2,3-c]pyridine-6-carboxylic acid ethyl ester]
IC50 [1]: > 100 µM | IC50 [2]: ≤ 2 µM

CCOC(=O)N1CCc2c(sc(NC(=O)/C=C/c3ccccc3C)c2C#N)C1 [Example 12, 3-Cyano-2-((E)-3-o-tolyl-allanoylamino)-4,7-dihydro-5H-thieno[2,3-c]pyridine-6-carboxylic acid ethyl ester]
IC50 [1]: > 100 µM | IC50 [2]: ≤ 2 µM

CCOC(=O)N1CCc2c(sc(NC(=O)/C=C/c3cccc(Cl)c3)c2C#N)C1 [Example 13, 2-[(E)-3-(3-Chloro-phenyl)-allanoylamino]-3-cyano-4,7-dihydro-5H-thieno[2,3-c]pyridine-6-carboxylic acid ethyl ester]
IC50 [1]: > 100 µM | IC50 [2]: ≤ 2 µM

CCOC(=O)N1CCc2c(sc(NC(=O)/C=C/c3cccc(C)c3)c2C#N)C1 [Example 16, 3-Cyano-2-((E)-3-m-tolyl-allanoylamino)-4,7-dihydro-5H-thieno[2,3-c]pyridine-6-carboxylic acid ethyl ester]
IC50 [1]: > 100 µM | IC50 [2]: ≤ 2 µM

CCOC(=O)N1CCc2c(sc(NC(=O)/C=C/c3cccc(OC)c3)c2C#N)C1 [Example 19, 3-Cyano-2-[(E)-3-(3-methoxy-phenyl)-allanoylamino]-4,7-dihydro-5H-thieno[2,3-c]pyridine-6-carboxylic acid ethyl ester]
IC50 [1]: > 100 µM | IC50 [2]: ≤ 2 µM

CCOC(=O)N1CCc2c(sc(NC(=O)/C=C/c3cccc(OC)c3OC)c2C#N)C1 [Example 20, 3-Cyano-2-[(E)-3-(2,3-dimethoxy-phenyl)-allanoylamino]-4,7-dihydro-5H-thieno[2,3-c]pyridine-6-carboxylic acid ethyl ester]
IC50 [1]: > 100 µM | IC50 [2]: ≤ 2 µM

CCOC(=O)N1CCc2c(sc(NC(=O)/C=C/c3cccc(F)c3)c2C#N)C1 [Example 21, 3-Cyano-2-[(E)-3-(3-fluoro-phenyl)-allanoylamino]-4,7-dihydro-5H-thieno[2,3-c]pyridine-6-carboxylic acid ethyl ester]
IC50 [1]: > 100 µM | IC50 [2]: ≤ 2 µM

CCOC(=O)N1CCc2c(sc(NC(=O)/C=C/c3ccccc3C(F)(F)F)c2C#N)C1 [Example 23, 3-Cyano-2-[(E)-3-(2-trifluoromethyl-phenyl)-allanoylamino]-4,7-dihydro-5H-thieno[2,3-c]pyridine-6-carboxylic acid ethyl ester]
IC50 [1]: > 100 µM | IC50 [2]: ≤ 2 µM

CCOC(=O)N1CCc2c(sc(NC(=O)/C=C/c3ccccc3OC)c2C#N)C1 [Example 24, 3-Cyano-2-[(E)-3-(2-methoxy-phenyl)-allanoylamino]-4,7-dihydro-5H-thieno[2,3-c]pyridine-6-carboxylic acid ethyl ester]
IC50 [1]: > 100 µM | IC50 [2]: ≤ 2 µM

CCOC(=O)N1CCc2c(sc(NC(=O)/C=C/c3ccc(N(C)C)cc3)c2C#N)C1 [Example 26, 3-Cyano-2-[(E)-3-(4-dimethylamino-phenyl)-allanoylamino]-4,7-dihydro-5H-thieno[2,3-c]pyridine-6-carboxylic acid ethyl ester]
IC50 [1]: > 100 µM | IC50 [2]: ≤ 2 µM

CCOC(=O)N1CCc2c(sc(NC(=O)/C=C/c3ccc(C)cc3)c2C#N)C1 [Example 27, 3-Cyano-2-((E)-3-p-tolyl-allanoylamino)-4,7-dihydro-5H-thieno[2,3-c]pyridine-6-carboxylic acid ethyl ester]
IC50 [1]: > 100 µM | IC50 [2]: ≤ 2 µM

CCOC(=O)N1CCc2c(sc(NC(=O)/C=C/c3ccc(Cl)cc3Cl)c2C#N)C1 [Example 28, 3-Cyano-2-[(E)-3-(2,4-dichloro-phenyl)-allanoylamino]-4,7-dihydro-5H-thieno[2,3-c]pyridine-6-carboxylic acid ethyl ester]
IC50 [1]: > 100 µM | IC50 [2]: ≤ 2 µM

CCOC(=O)N1CCc2c(sc(NC(=O)/C=C/c3cccc([N+](=O)[O-])c3)c2C#N)C1 [Example 29, 3-Cyano-2-[(E)-3-(3-nitro-phenyl)-allanoylamino]-4,7-dihydro-5H-thieno[2,3-c]pyridine-6-carboxylic acid ethyl ester]
IC50 [1]: > 100 µM | IC50 [2]: ≤ 2 µM

CCOC(=O)N1CCc2c(sc(NC(=O)/C=C/c3ccc4c(c3)OCO4)c2C#N)C1 [Example 30, 2-((E)-3-Benzo[1,3]dioxol-5-yl-allanoylamino)-3-cyano-4,7-dihydro-5H-thieno[2,3-c]pyridine-6-carboxylic acid ethyl ester]
IC50 [1]: > 100 µM | IC50 [2]: ≤ 2 µM

CC(C)(C)OC(=O)N1CCc2c(sc(NC(=O)/C=C/c3cccnc3)c2C#N)C1 [Example 32, 3-Cyano-2-((E)-3-pyridin-3-yl-allanoylamino)-4,7-dihydro-5H-thieno[2,3-c]pyridine-6-carboxylic acid tert-butyl ester]
IC50 [1]: > 100 µM | IC50 [2]: ≤ 2 µM

CCCC(=O)N1CCc2c(sc(NC(=O)/C=C/c3ccccc3)c2C#N)C1 [Example 33, (E)-N-(6-Butyryl-3-cyano-4,5,6,7-tetrahydro-thieno[2,3-c]pyridin-2-yl)-3-phenyl-acrylamide]
IC50 [1]: > 100 µM | IC50 [2]: ≤ 2 µM
